Here are results for nine compounds from patent publication US9211300B2 (priority 2012, dated 2015).

Where two headings read alike, the source gives them in different places.

Series [1] has as its target T1, wild-type HCV genotype 1b NS5B protein (recombinant HCV polymerase) (Hepatitis C virus genotype 1b, UniProt Q9WMX2).
T1 construct: HCV genotype 1b NS5B protein were used to generate recombinant HCV polymerases (with a deletion of the 21 carboxy terminal amino acids); made in house
Description: HCV Polymerase Enzyme Assay, wild-type. The series is classed as biochemical. An excerpt:
(§1) Test compounds in the form of nucleoside triphosphates were examined for inhibitory activity against purified HCV polymerase in a standard assay. Bacterial expression constructs encoding the approximately 65 kDa HCV genotype 1b NS5B protein were used to generate recombinant HCV polymerases (with a deletion of the 21 carboxy terminal amino acids). Both the wild-type genotype 1b protein and protein containing the S282T mutation were expressed and purified for use in the enzymatic activity assay.
The enzymatic activity assay measured the inhibitory effect of increasing concentrations of test compound on the incorporation of α-[^33P]-labeled nucleotide into trichloroacetic acid-precipitable material. Recombinant polymerase and synthetic RNA template were combined in reaction buffer containing ribonucleoside triphosphates, α-[^33P]-labeled nucleotide and eight concentrations of test compound in three-fold dilutions. Reactions were incubated for two hours at 30° C.
(§2) Reactions were terminated by the addition of ice-cold trichloroacetic acid and sodium pyrophosphate to promote precipitation of newly-synthesized ribonucleic acid. Precipitable material from the reactions was collected by filtration onto 96-well filter plates, washed extensively with water, and quantified by liquid scintillation.
(§3) The inhibitory activity of test compounds was determined by fitting results to dose-response curves using XLfit software.

For series [2], the system named is HCV genotype 1b replicon. Description: HCV Replicon Assay (Zluc, luciferase). The series is classed as cell-based. The settings on record: Zluc cells (Huh-7-derived), 72 hours of incubation. The method, then: Huh-7-derived cell line (Zluc) that harbors an HCV genotype 1b replicon and a luciferase reporter gene was grown in Dulbecco's Modified Eagle Medium (DMEM) supplemented with 10% fetal bovine serum, 2 mM GlutaMAX, 1% MEM nonessential amino acids, 100 IU/mL penicillin, 100 μg/mL streptomycin, and 0.5 mg/mL Geneticin® (G418). For dose response testing the cells were seeded in 96-well plates at 7.5×10^3 cells per well in a volume of 50 μL, and incubated at 37° C./5% CO2. Drug solutions were made up freshly in Huh-7 media as 2× stocks. Ten additional 5-fold dilutions were prepared from these stocks in DMEM without G418. At least three hours after Zluc cells were seeded, drug treatment was initiated by adding 50 μL of drug dilutions to the plates in duplicate. Final concentrations of drug ranged from 100 μM to […]. Cells were then incubated at 37° C./5% CO2. Alternatively, compounds were tested at two concentrations (1 μM and 10 μM). […] For this, media was removed from the plates via gentle tapping. Fifty microliters of ONE-glo luciferase assay reagent was added to each well. The plates were shaken gently for 3 min at room temperature and luminescence was measured on a Victor^3 V 1420 multilabel counter (Perkin Elmer) with a 1 second read time using a 700 nm cut-off filter. The EC50 values were calculated from dose response curves from the resulting best-fit equations determined by Microsoft Excel and XLfit 4.1 software. When screening at two fixed concentrations, the results were expressed as % inhibition at 1 μM and 10 μM.

The conditions of series [3]: CD-1 mice, liver triphosphate, normalised to 1 μmol/kg; for Ms Liver TP AUC (pmol · hr/g at 1 μmol/kg) following a single 2 mg/kg dose: single oral 2 mg/kg dose.
Description: A single oral dose of test compound at 10 mg/kg and/or 2 mg/kg in PEG 200 (dose volume 5 mL/kg) was administered to nine CD-1 male mice. Five untreated animals were used for the collection of control plasma and liver. Terminal plasma and liver samples were collected from three animals per time point at 4, 12 and 24 hours post dose. Liver specimens were collected from all animals immediately after the incision. Freezing forceps stored in liquid nitrogen were used to freeze the liver before excision. Only liver samples were analyzed for triphosphate levels.
Liver samples were analyzed for the active species nucleoside triphosphate by LC-MS/MS. The triphosphate levels were assayed by homogenizing (on ice) a known weight of mouse liver with 4× volume of 0.95 M trichloroacetic acid (TCA) in water. Internal standard solution was added to the homogenate and mixed. Sample homogenates were centrifuged at 16.1 krpm for 5 minutes. Supernatants were transferred to 96 well plates and injected onto the LC-MS/MS system. The samples were chromatographed on a Luna NH2 column using a gradient system of ammonium acetate (1 mM to 20 mM and pH 8.0 to pH 10.0) in water and acetonitrile (70:30). The analyte was detected and quantified by tandem mass spectrometry using the analyte specific MRM transition on an API4000 equipped with a Turbo Ionspray® interface.
The subject of series [4] is Zluc cells. In words: Cytotoxicity evaluation, CellTiter-Blue Cell Viability Assay. The series is classed as cell-based. As to conditions: read-out: HCV Replicon CC50. The method, then: (§4) For cytotoxicity evaluation, Zluc cells were treated with test compound as described herein, and cell viability was monitored using the CellTiter-Blue Cell Viability Assay (Promega) by adding 20 μL of the assay solution to each well. The plates were then incubated at 37° C./5% CO2 for at least 3 hours.

Series [5] can be described thus: Liver triphosphate after a single oral dose in cynomolgus monkeys. The series is classed as in vivo. The method, then:
For Compound 2b, isomer 1, a single oral dose at 10 mg/kg in PEG 200 (dose volume 3 mL/kg) was administered to three cynomolgus monkeys. One Untreated animal was used for the collection of control liver. Terminal liver samples were collected from three animals at 6 hours post dose.

Series [6] is described as follows: Cytotoxicity evaluation, CellTiter-Blue Cell Viability Assay. As to conditions: human, Zluc cells, read-out: HCV Replicon CC50. The series is classed as cell-based. The method, then:
as §4

Series [7] concerns the target T2, HCV genotype 1b NS5B protein containing the S282T mutation (Hepatitis C virus genotype 1b, UniProt Q9WMX2, S2701T).
T2 construct: HCV genotype 1b NS5B protein were used to generate recombinant HCV polymerases (with a deletion of the 21 carboxy terminal amino acids); made in house
In words: HCV Polymerase Enzyme Assay, S282T. The series is classed as biochemical. As to conditions: nucleoside triphosphates; genotype 1b NS5B with S282T mutation.
Description: as §1
The enzymatic activity assay measured the inhibitory effect of increasing concentrations of test compound on the incorporation of α-[^33P]-labeled nucleotide into trichloroacetic acid-precipitable material. Recombinant polymerase and synthetic RNA template were combined in reaction buffer containing ribonucleoside triphosphates, α-[^33P]-labeled nucleotide and eight concentrations of test compound in three-fold dilutions. […]
as §2, §3

[8] abbreviates: read-out: Wild-Type IC50, nucleoside triphosphates, wild-type genotype 1b NS5B.

For the compound `Nc1ncnc2c1ncn2[C@@H]1O[C@](F)(COP(=O)(O)OP(=O)(O)OP(=O)(O)O)[C@@H](O)[C@H]1O` [Compound 106], the IC50 in series [1] was above 10 µM.
Turning to `Nc1ccn(C2O[C@](F)(COP(=O)(O)OP(=O)(O)OP(=O)(O)O)[C@@H](O)[C@H]2O)c(=O)n1` (stereo partly shown) [Compound 105], in series [1] (setting [8]), the half-inhibitory concentration (IC50) is 0.25 to 1 µM.
`CC(C)OC(=O)[C@H](C)NP(=O)(OC[C@@]1(F)O[C@@H](n2ccc(=O)[nH]c2=O)[C@H](O)[C@@H]1O)Oc1ccccc1` (single isomer, unassigned) [Compound 2b Diastereomer 2]: the 50% effective concentration (EC50) in series [2] (listed as 2b Diastereomer 2) was in the range of 1 to 10 µM. Besides, the “Ms Liver TP AUC (pmol · hr/g at 1 μmol/kg) following a single 2 mg/kg dose” value in series [3] is listed as “+++++ (1600 < +++++)”. Moreover, in series [4], the CC50 was above 50 µM.
In the case of `CC(C)OC(=O)[C@H](C)NP(=O)(OC[C@@]1(F)O[C@@H](n2ccc(=O)[nH]c2=O)[C@H](O)[C@@H]1O)Oc1ccccc1` (single isomer, unassigned) [Compound 2b Diastereomer 1], the 50% effective concentration (EC50) in series [2] (listed as 2b Diastereomer 1) is above 10 µM. The “Ms Liver TP AUC (pmol · hr/g at 1 μmol/kg) following a single 2 mg/kg dose” value in series [3] is recorded as “+++++ (1600 < +++++)”. Further, the “Ms Liver TP AUC (pmol · hr/g at 1 μmol/kg) following a single 10 mg/kg dose” value in series [3] (single oral 10 mg/kg dose) is reported as “+++++ (1600 < +++++)”. The “Nucleoside triphosphate in Liver C6 (pmol/g) at 1 μmol/kg” value in series [5] (6 hr post dose, normalised to 1 μmol/kg) is on record as “+ (+ ≦ 10 pmol/g)”. Moreover, the “Nucleoside triphosphate in Liver C6 (pmol/g) at 10 mg/kg” value in series [5] (single oral 10 mg/kg, concentration at 6 hr post dose) is recorded as “++++ (100 pmol/g < ++++ ≦ 160 pmol/g)”. For the same compound, in series [6], the CC50 was above 50 µM.
With `O=c1[nH]c(=O)n([C@@H]2O[C@](F)(COP(=O)(O)OP(=O)(O)OP(=O)(O)O)[C@@H](O)[C@H]2O)cc1Br` [Compound 104], in series [1], the IC50 lay in the range of 1 to 10 µM.
With `C[C@]1(O)[C@H](n2cc(Br)c(=O)[nH]c2=O)O[C@](F)(COP(=O)(O)OP(=O)(O)OP(=O)(O)O)[C@H]1O` [Compound 101], in series [1], the IC50 fell in the range of 1 to 10 µM.
Regarding `CC(C)OC(=O)[C@H](C)NP(=O)(OC[C@@]1(F)O[C@@H](n2cnc3c(=O)[nH]c(N)nc32)[C@@H](O)C1O)Oc1ccccc1` (single isomer, unassigned) [Compound 3b Diastereomer 2], the EC50 in series [2] (Hepatitis C virus, 72 h) lay within 0.25 to 1 µM. Moreover, the CC50 in series [6] is above 50 µM.
For `O=c1ccn(C2O[C@](F)(COP(=O)(O)OP(=O)(O)OP(=O)(O)O)[C@@H](O)[C@H]2O)c(=O)[nH]1` (stereo partly shown) [Compound 102], the values for the IC50 in series [1] (setting [8]) and in series [7] were 0.25 to 1 µM and below 0.25 µM, respectively.
Consider `Nc1nc2c(ncn2[C@@H]2O[C@](F)(COP(=O)(O)OP(=O)(O)OP(=O)(O)O)[C@@H](O)[C@H]2O)c(=O)[nH]1` [Compound 103], for which the half-inhibitory concentration (IC50) in series [1] and in series [7] was below 0.25 µM each time.
